In BindingDB's records for doi:10.1021/jm00110a017 (Institutions, 1991):

Experiment: Displacement of [3H]DTG from sigma opioid receptor of homogenized guinea pig whole brain

| SMILES | IC50 [nM] |
| --- | --- |
| COc1ccc(N=C(N)NC23CC4CC(CC(C4)C2)C3)c(C)c1 | 7 |
| COc1ccccc1N=C(N)NC12CC3CC(CC(C3)C1)C2 | 17 |
| Cc1cc(F)ccc1N=C(N)NC12CC3CC(CC(C3)C1)C2 | 3.2 |
| NC(=NC12CC3CC(CC(C3)C1)C2)Nc1cccc(I)c1 | 8 |
| COc1cccc(NC(N)=NC23CC4CC(CC(C4)C2)C3)c1 | 7 |
| NC(=Nc1ccccc1I)NC12CC3CC(CC(C3)C1)C2 | 6.2 |
| COc1ccc(NC(N)=NC23CC4CC(CC(C4)C2)C3)cc1 | 10 |
